Data taken from ChEMBL document CHEMBL1131977, “Synthesis and in vitro activity of new oxazolidinone antibacterial agents having substituted isoxazoles” (1999).
Converted amounts (≈) assume the structure as drawn.

Experiments:
Format in all cases: functional
[1] = test system: Staphylococcus epidermidis; assay: In vitro antibacterial activity against Staphylococcus epidermis (S.e.2) C2235.
Streptococcus pyogenes [2] = assay: In vitro antibacterial activity against Streptococcus pyogenes C6003 (S.p.2).
Streptococcus pyogenes [3] = assay: In vitro antibacterial activity against Streptococcus pyogenes ATCC 8668 (S.p.1).
Enterococcus faecalis = assay: In vitro antibacterial activity against Enterococcus faecalis C6291 (E.f.1).
Staphylococcus aureus [4] = assay: In vitro antibacterial activity against methicillin-susceptible Staphylococcus aureus (MSSA) C2214.
Staphylococcus aureus [5] = assay: In vitro antibacterial activity against ciprofloxacin-resistant Staphylococcus aureus (CRSA) C6043.
Enterococcus faecium [6] = assay: In vitro antibacterial activity against Enterococcus faecium C6301 (E.f.2).
[7] = test system: Staphylococcus epidermidis; assay: In vitro antibacterial activity against Staphylococcus epidermis (S.e.1) […].
Enterococcus faecium [8] = assay: In vitro antibacterial activity against vancomycin-resistant Enterococcus faecium C6487 (VRE).
Staphylococcus aureus [9] = assay: In vitro antibacterial activity against methicillin-resistant Staphylococcus aureus (MRSA) C6068.
Staphylococcus aureus [10] = assay: In vitro antibacterial activity against Staphylococcus aureus (S. a.) ATCC 29213.

Row | Compound | MIC [1] [mg/L] | MIC (Streptococcus pyogenes [2]) [mg/L] | MIC (Streptococcus pyogenes [3]) [mg/L] | MIC (Enterococcus faecalis) [mg/L] | MIC (Staphylococcus aureus [4]) [mg/L] | MIC (Staphylococcus aureus [5]) [mg/L] | MIC (Enterococcus faecium [6]) [mg/L] | MIC [7] [mg/L] | MIC (Enterococcus faecium [8]) [mg/L] | MIC (Staphylococcus aureus [9]) [mg/L] | MIC (Staphylococcus aureus [10]) [mg/L]
1 | CC(=O)NC[C@H]1CN(c2ccc(N3CCN(C(=O)c4cc(C(N)=O)no4)CC3)c(F)c2)C(=O)O1 | 0.5 (≈ 1.05 µM) | 0.25 (≈ 0.527 µM) | 0.25 (≈ 0.527 µM) | 1 (≈ 2.11 µM) | 2 (≈ 4.22 µM) | 2 (≈ 4.22 µM) | 1 (≈ 2.11 µM) | 0.5 (≈ 1.05 µM) | 1 (≈ 2.11 µM) | 1 (≈ 2.11 µM) | 2 (≈ 4.22 µM)
2 | COc1ccc(-c2cc(CN3CCN(c4ccc(N5C[C@H](CNC(C)=O)OC5=O)cc4F)CC3)on2)cc1OC | 4 (≈ 7.23 µM) | 1 (≈ 1.81 µM) | 2 (≈ 3.61 µM) | 4 (≈ 7.23 µM) | 4 (≈ 7.23 µM) | 4 (≈ 7.23 µM) | 4 (≈ 7.23 µM) | 2 (≈ 3.61 µM) | 2 (≈ 3.61 µM) | 2 (≈ 3.61 µM) | 4 (≈ 7.23 µM)
3 | CC(=O)NC[C@H]1CN(c2ccc(N3CCN(C(=O)c4cc(-c5nccs5)no4)CC3)c(F)c2)C(=O)O1 | 0.5 (≈ 0.972 µM) | 0.5 (≈ 0.972 µM) | 0.25 (≈ 0.486 µM) | 1 (≈ 1.94 µM) | 1 (≈ 1.94 µM) | 0.5 (≈ 0.972 µM) | 1 (≈ 1.94 µM) | 0.5 (≈ 0.972 µM) | 0.5 (≈ 0.972 µM) | 0.5 (≈ 0.972 µM) | 2 (≈ 3.89 µM)
4 | CC(=O)NC[C@H]1CN(c2ccc(N3CCN(Cc4cc(-c5ccc(Cl)cc5)no4)CC3)c(F)c2)C(=O)O1 | 32 (≈ 60.6 µM) | 4 (≈ 7.58 µM) | 4 (≈ 7.58 µM) | > 32 | 32 (≈ 60.6 µM) | > 32 | 32 (≈ 60.6 µM) | 16 (≈ 30.3 µM) | 32 (≈ 60.6 µM) | 16 (≈ 30.3 µM) | > 32
5 | CN[C@H](CC(C)C)C(=O)N[C@H]1C(=O)N[C@@H](CC(N)=O)C(=O)N[C@H]2C(=O)N[C@H]3C(=O)N[C@H](C(=O)N[C@H](C(=O)O)c4cc(O)cc(O)c4-c4cc3ccc4O)[C@H](O)c3ccc(c(Cl)c3)Oc3cc2cc(c3O[C@@H]2O[C@H](CO)[C@@H](O)[C@H](O)[C@H]2O[C@H]2C[C@](C)(N)[C@H](O)[C@H](C)O2)Oc2ccc(cc2Cl)[C@H]1O [VANCOMYCIN] | – | 0.25 (≈ 0.173 µM) | 0.25 (≈ 0.173 µM) | 1 (≈ 0.69 µM) | – | – | – | 0.5 (≈ 0.345 µM) | > 32 | – | –
6 | CC(=O)NC[C@H]1CN(c2ccc(N3CCN(C(=O)c4cc(Cl)no4)CC3)c(F)c2)C(=O)O1 | 1 (≈ 2.15 µM) | 1 (≈ 2.15 µM) | 1 (≈ 2.15 µM) | 2 (≈ 4.29 µM) | 4 (≈ 8.59 µM) | 2 (≈ 4.29 µM) | 2 (≈ 4.29 µM) | 1 (≈ 2.15 µM) | 2 (≈ 4.29 µM) | 1 (≈ 2.15 µM) | 4 (≈ 8.59 µM)
7 | CC(=O)NC[C@H]1CN(c2ccc(N3CCN(C(=O)c4cc(OCCF)no4)CC3)c(F)c2)C(=O)O1 | 2 (≈ 4.05 µM) | 0.5 (≈ 1.01 µM) | 0.5 (≈ 1.01 µM) | 2 (≈ 4.05 µM) | 2 (≈ 4.05 µM) | 2 (≈ 4.05 µM) | 1 (≈ 2.03 µM) | 1 (≈ 2.03 µM) | 1 (≈ 2.03 µM) | 2 (≈ 4.05 µM) | 4 (≈ 8.11 µM)
8 | CC(=O)NC[C@H]1CN(c2ccc(N3CCN(C(=O)c4cc(COC(N)=O)no4)CC3)c(F)c2)C(=O)O1 | 0.5 (≈ 0.991 µM) | 0.5 (≈ 0.991 µM) | 0.5 (≈ 0.991 µM) | 1 (≈ 1.98 µM) | 2 (≈ 3.96 µM) | 2 (≈ 3.96 µM) | 1 (≈ 1.98 µM) | 0.5 (≈ 0.991 µM) | 1 (≈ 1.98 µM) | 1 (≈ 1.98 µM) | 2 (≈ 3.96 µM)
9 | CC(=O)NC[C@H]1CN(c2ccc(N3CCOCC3)c(F)c2)C(=O)O1 [LINEZOLID] | 1 (≈ 2.96 µM) | 0.5 (≈ 1.48 µM) | 0.5 (≈ 1.48 µM) | – | – | – | 1 (≈ 2.96 µM) | 1 (≈ 2.96 µM) | 2 (≈ 5.93 µM) | 1 (≈ 2.96 µM) | –
10 | CC(=O)NC[C@H]1CN(c2ccc(N3CCN(Cc4cc(-c5ccccn5)no4)CC3)c(F)c2)C(=O)O1 | 1 (≈ 2.02 µM) | 0.5 (≈ 1.01 µM) | 0.5 (≈ 1.01 µM) | 2 (≈ 4.04 µM) | 4 (≈ 8.09 µM) | 2 (≈ 4.04 µM) | 2 (≈ 4.04 µM) | 1 (≈ 2.02 µM) | 2 (≈ 4.04 µM) | 2 (≈ 4.04 µM) | 2 (≈ 4.04 µM)
11 | CC(=O)NC[C@H]1CN(c2ccc(N3CCN(Cc4cc(-c5ccc(F)cc5)no4)CC3)c(F)c2)C(=O)O1 | 4 (≈ 7.82 µM) | 2 (≈ 3.91 µM) | 2 (≈ 3.91 µM) | 4 (≈ 7.82 µM) | 8 (≈ 15.6 µM) | 8 (≈ 15.6 µM) | 4 (≈ 7.82 µM) | 2 (≈ 3.91 µM) | 4 (≈ 7.82 µM) | 4 (≈ 7.82 µM) | 8 (≈ 15.6 µM)
12 | CC(=O)NC[C@H]1CN(c2ccc(N3CCN(Cc4cc(-c5ccc(C#N)cc5)no4)CC3)c(F)c2)C(=O)O1 | 8 (≈ 15.4 µM) | 2 (≈ 3.86 µM) | 2 (≈ 3.86 µM) | 16 (≈ 30.9 µM) | 16 (≈ 30.9 µM) | 16 (≈ 30.9 µM) | 16 (≈ 30.9 µM) | 4 (≈ 7.71 µM) | 8 (≈ 15.4 µM) | 8 (≈ 15.4 µM) | 16 (≈ 30.9 µM)
13 | CC(=O)NC[C@H]1CN(c2ccc(N3CCN(C(=O)c4cc(O)no4)CC3)c(F)c2)C(=O)O1 | > 32 | 16 (≈ 35.8 µM) | 16 (≈ 35.8 µM) | > 32 | > 32 | – | > 32 | > 32 | – | – | > 32
